Assay results: a polymer gas permeability compilation

## *C(=C(*)c1ccc2c(c1)C(C)(C)CCC2(C)C)c1ccccc1 (repeat unit)
  CH4 permeability: 6600 Barrer
  CO2 permeability: 11400 Barrer
  H2 permeability: 7700 Barrer
  N2 permeability: 2700 Barrer
  O2 permeability: 3900 Barrer

## *C(=C(*)c1ccc2c(c1)C(C)(C)c1ccccc1-2)c1cc(F)cc(F)c1 (repeat unit)
  CH4 permeability: 4200 Barrer
  CO2 permeability: 9200 Barrer
  H2 permeability: 5000 Barrer
  N2 permeability: 1700 Barrer
  O2 permeability: 2700 Barrer

## *C(=C(*)c1ccc2c(c1)C(C)(C)c1ccccc1-2)c1ccc(Br)cc1 (repeat unit)
  CH4 permeability: 9300 Barrer
  CO2 permeability: 17000 Barrer
  H2 permeability: 8700 Barrer
  N2 permeability: 3500 Barrer
  O2 permeability: 5000 Barrer

## *C(=C(*)c1ccc2c(c1)C(C)(C)c1ccccc1-2)c1ccc(C(C)(C)C)cc1 (repeat unit)
  CH4 permeability: 6600 Barrer
  CO2 permeability: 11000 Barrer
  H2 permeability: 6300 Barrer
  N2 permeability: 2500 Barrer
  O2 permeability: 3500 Barrer

## *C(=C(*)c1ccc2c(c1)C(C)(C)c1ccccc1-2)c1ccc(F)cc1 (repeat unit)
  CH4 permeability: 11000 Barrer
  CO2 permeability: 21000 Barrer
  H2 permeability: 11000 Barrer
  N2 permeability: 4700 Barrer
  O2 permeability: 6200 Barrer

## *C(=C(*)c1ccc2c(c1)C(C)(C)c1ccccc1-2)c1ccc([Si](C)(C)C)cc1 (repeat unit)
  CH4 permeability: 525 Barrer
  CO2 permeability: 1900 Barrer
  H2 permeability: 1040 Barrer
  N2 permeability: 200 Barrer
  O2 permeability: 455 Barrer

## *c1cc2c(cc1O)C1(CC2(C)C)CC(C)(C)c2cc(N3C(=O)C4C5C=CC(C6C(=O)N(*)C(=O)C56)C4C3=O)c(O)cc21 (repeat unit)
  CH4 permeability: 4.6 Barrer
  CO2 permeability: 130 Barrer
  H2 permeability: 206 Barrer
  N2 permeability: 5.5 Barrer
  O2 permeability: 23 Barrer

## *c1ccc(*)c(C(=O)c2ccccc2)c1 (repeat unit)
  CH4 permeability: 0.36 Barrer
  CO2 permeability: 14.2 Barrer
  H2 permeability: 27.4 Barrer
  N2 permeability: 0.4 Barrer
  O2 permeability: 2.99 Barrer

## *c1ccc(-c2cc(C)c(-c3ccc(*)c(C)c3)cc2C)cc1C (repeat unit)
  CH4 permeability: 1.1 Barrer
  H2 permeability: 51 Barrer
  N2 permeability: 1.6 Barrer
  O2 permeability: 8.6 Barrer

## *c1ccc(-c2cc(C)c(-c3ccc(*)cc3C)cc2C)c(C)c1 (repeat unit)
  CH4 permeability: 0.88 Barrer
  CO2 permeability: 32 Barrer
  H2 permeability: 72 Barrer
  N2 permeability: 1.4 Barrer
  O2 permeability: 7.2 Barrer

## *c1ccc(-c2ccc(-n3c(=O)c4cc5oc6cc7c(cc6oc5cc4c3=O)C3(CC(C)(C)c4cc5oc6cc8c(=O)n(*)c(=O)c8cc6oc5cc43)CC7(C)C)cc2C(F)(F)F)c(C(F)(F)F)c1 (repeat unit)
  CH4 permeability: 20 Barrer
  CO2 permeability: 420 Barrer
  H2 permeability: 300 Barrer
  N2 permeability: 16 Barrer
  O2 permeability: 64 Barrer

## *c1ccc(-c2ccc(C(*)(c3ccccc3)C(F)(F)F)cc2)cc1 (repeat unit)
  CH4 permeability: 10 Barrer
  CO2 permeability: 166 Barrer
  H2 permeability: 114 Barrer
  N2 permeability: 6.6 Barrer
  O2 permeability: 25 Barrer

## *c1ccc(-c2ccc(N3C(=O)c4ccc(-c5ccc6c(c5)C(=O)N(*)C6=O)cc4C3=O)c(O)c2)cc1O (repeat unit)
  CH4 permeability: 0.00041 Barrer
  CO2 permeability: 0.0313 Barrer
  N2 permeability: 0.001 Barrer
  O2 permeability: 0.0096 Barrer

## *c1ccc(-c2ccc(Oc3ccc(C4(c5ccc(Oc6ccc(-c7ccc(N8C(=O)c9ccc(C(c%10ccc%11c(c%10)C(=O)N(*)C%11=O)(C(F)(F)F)C(F)(F)F)cc9C8=O)cc7)cc6C(F)(F)F)cc5)c5ccccc5C(=O)N4c4ccccc4)cc3)c(C(F)(F)F)c2)cc1 (repeat unit)
  CH4 permeability: 1.01 Barrer
  CO2 permeability: 53.9 Barrer
  N2 permeability: 1.71 Barrer
  O2 permeability: 10.2 Barrer

## *c1ccc(-c2ccc(Oc3ccc4c(c3)C3(CC4(C)C)CC(C)(C)c4ccc(Oc5ccc(-c6ccc(N7C(=O)c8ccc(C(c9ccc%10c(c9)C(=O)N(*)C%10=O)(C(F)(F)F)C(F)(F)F)cc8C7=O)cc6)cc5C(F)(F)F)cc43)c(C(F)(F)F)c2)cc1 (repeat unit)
  CH4 permeability: 1.21 Barrer
  CO2 permeability: 53 Barrer
  N2 permeability: 3.35 Barrer
  O2 permeability: 36.1 Barrer

## *c1ccc(-c2ccc(Oc3ccc4c(c3)C3(CC4(C)C)CC(C)(C)c4ccc(Oc5ccc(-c6ccc(N7C(=O)c8ccc(Oc9ccc(C(C)(C)c%10ccc(Oc%11ccc%12c(c%11)C(=O)N(*)C%12=O)cc%10)cc9)cc8C7=O)cc6)cc5C(F)(F)F)cc43)c(C(F)(F)F)c2)cc1 (repeat unit)
  CH4 permeability: 0.35 Barrer
  CO2 permeability: 23.9 Barrer
  N2 permeability: 1.02 Barrer
  O2 permeability: 9.92 Barrer

## *c1ccc(-c2nnc(-c3ccc(N4C(=O)c5ccc(C(c6ccc7c(c6)C(=O)N(*)C7=O)(C(F)(F)F)C(F)(F)F)cc5C4=O)cc3)o2)cc1 (repeat unit)
  CH4 permeability: 0.25 Barrer
  CO2 permeability: 15.6 Barrer
  N2 permeability: 0.61 Barrer

## *c1ccc(C(C)(C)c2ccc(-n3c(=O)c4cc5c(=O)n(*)c(=O)c5cc4c3=O)cc2)cc1 (repeat unit)
  CH4 permeability: 0.901 Barrer
  CO2 permeability: 26.9 Barrer
  H2 permeability: 17 Barrer
  N2 permeability: 1.5 Barrer
  O2 permeability: 7.1 Barrer

## *c1ccc(C(C)(C)c2cccc(N3C(=O)c4ccc(C(c5ccc6c(c5)C(=O)N(*)C6=O)(C(F)(F)F)C(F)(F)F)cc4C3=O)c2)cc1 (repeat unit)
  CH4 permeability: 0.217 Barrer
  CO2 permeability: 10.7 Barrer
  H2 permeability: 38.2 Barrer
  N2 permeability: 0.473 Barrer
  O2 permeability: 2.89 Barrer

## *c1ccc(C(c2ccc(-c3nc4cc(C(c5ccc6oc(*)nc6c5)(C(F)(F)F)C(F)(F)F)ccc4o3)cc2)(C(F)(F)F)C(F)(F)F)cc1 (repeat unit)
  CH4 permeability: 176 Barrer
  CO2 permeability: 4540 Barrer
  H2 permeability: 3900 Barrer
  N2 permeability: 300 Barrer
  O2 permeability: 1150 Barrer

## *c1ccc(C(c2ccc(N3C(=O)c4ccc(C(=O)c5ccc6c(c5)C(=O)N(*)C6=O)cc4C3=O)cc2)(C(F)(F)F)C(F)(F)F)cc1 (repeat unit)
  CH4 permeability: 0.191 Barrer
  CO2 permeability: 17.5 Barrer
  H2 permeability: 30.8 Barrer
  N2 permeability: 0.375 Barrer
  O2 permeability: 2.18 Barrer

## *c1ccc(C)c(-c2cc(C)c(-c3cc(*)ccc3C)cc2C)c1 (repeat unit)
  CH4 permeability: 1.9 Barrer
  CO2 permeability: 62 Barrer
  H2 permeability: 100 Barrer
  N2 permeability: 2.4 Barrer
  O2 permeability: 12 Barrer

## *c1ccc(C2(c3ccc(*)cc3)OC(=O)c3ccccc32)cc1 (repeat unit)
  CH4 permeability: 2.88 Barrer
  CO2 permeability: 72 Barrer
  H2 permeability: 74 Barrer
  N2 permeability: 2.39 Barrer
  O2 permeability: 11 Barrer

## *c1ccc(C2(c3ccc(N4C(=O)c5ccc(C(c6ccc7c(c6)C(=O)N(*)C7=O)(C(F)(F)F)C(F)(F)F)cc5C4=O)cc3)c3cc(C(C)(C)C)ccc3-c3ccc(C(C)(C)C)cc32)cc1 (repeat unit)
  CH4 permeability: 14.6 Barrer
  CO2 permeability: 271 Barrer
  N2 permeability: 14.1 Barrer

## *c1ccc(C2(c3ccc(N4C(=O)c5ccc(C(c6ccc7c(c6)C(=O)N(*)C7=O)(C(F)(F)F)C(F)(F)F)cc5C4=O)cc3)c3ccccc3-c3ccccc32)cc1 (repeat unit)
  CH4 permeability: 1.96 Barrer
  CO2 permeability: 58.9 Barrer
  N2 permeability: 3.3 Barrer

## *c1ccc(Cc2ccc(N3C(=O)c4cc(Oc5ccccc5)c(-c5cc6c(cc5Oc5ccccc5)C(=O)N(*)C6=O)cc4C3=O)cc2)cc1 (repeat unit)
  CH4 permeability: 0.85 Barrer
  CO2 permeability: 29 Barrer
  N2 permeability: 0.73 Barrer
  O2 permeability: 3.36 Barrer

## *c1ccc(Cc2ccc(N3C(=O)c4ccc(-c5ccc6c(c5)C(=O)N(*)C6=O)cc4C3=O)c(C)c2)cc1C (repeat unit)
  CH4 permeability: 0.0278 Barrer
  CO2 permeability: 1.41 Barrer
  N2 permeability: 0.0483 Barrer
  O2 permeability: 0.369 Barrer

## *c1ccc(Cc2ccc(N3C(=O)c4ccc(-c5ccc6c(c5)C(=O)N(*)C6=O)cc4C3=O)c(Cl)c2)cc1Cl (repeat unit)
  CH4 permeability: 0.0164 Barrer
  CO2 permeability: 0.978 Barrer
  N2 permeability: 0.0307 Barrer
  O2 permeability: 0.26 Barrer

## *c1ccc(Cc2ccc(N3C(=O)c4ccc(-c5ccc6c(c5)C(=O)N(*)C6=O)cc4C3=O)cc2Br)c(Br)c1 (repeat unit)
  CH4 permeability: 0.0054 Barrer
  CO2 permeability: 0.315 Barrer
  N2 permeability: 0.0103 Barrer
  O2 permeability: 0.0923 Barrer

## *c1ccc(Cc2ccc(N3C(=O)c4ccc(-c5ccc6c(c5)C(=O)N(*)C6=O)cc4C3=O)cc2F)c(F)c1 (repeat unit)
  CH4 permeability: 0.0129 Barrer
  CO2 permeability: 0.542 Barrer
  N2 permeability: 0.0203 Barrer
  O2 permeability: 0.143 Barrer

## *c1ccc(Cc2ccc(N3C(=O)c4ccc(C(c5ccc6c(c5)C(=O)N(*)C6=O)(C(F)(F)F)C(F)(F)F)cc4C3=O)c(C)c2)cc1C (repeat unit)
  CH4 permeability: 0.198 Barrer
  CO2 permeability: 8.75 Barrer
  N2 permeability: 0.406 Barrer
  O2 permeability: 2.51 Barrer

## *c1ccc(Cc2ccc(N3C(=O)c4ccc(C(c5ccc6c(c5)C(=O)N(*)C6=O)(C(F)(F)F)C(F)(F)F)cc4C3=O)c(Cl)c2)cc1Cl (repeat unit)
  CH4 permeability: 0.121 Barrer
  CO2 permeability: 6.78 Barrer
  N2 permeability: 0.269 Barrer
  O2 permeability: 1.81 Barrer

## *c1ccc(Cc2ccc(N3C(=O)c4ccc(C(c5ccc6c(c5)C(=O)N(*)C6=O)(C(F)(F)F)C(F)(F)F)cc4C3=O)cc2)cc1 (repeat unit)
  CH4 permeability: 0.344 Barrer
  CO2 permeability: 15.2 Barrer
  H2 permeability: 44.7 Barrer
  N2 permeability: 0.686 Barrer
  O2 permeability: 3.88 Barrer

## *c1ccc(N2C(=O)c3ccc([Si](C)(C)c4ccc5c(c4)C(=O)N(*)C5=O)cc3C2=O)cc1 (repeat unit)
  CH4 permeability: 0.064 Barrer
  CO2 permeability: 2.75 Barrer
  H2 permeability: 9.4 Barrer
  N2 permeability: 0.105 Barrer
  O2 permeability: 0.6 Barrer

## *c1ccc(Oc2cc3c(cc2C)OC2(CC3(C)C)CC(C)(C)c3cc(Oc4ccc(*)cc4)c(C)cc3O2)cc1 (repeat unit)
  CH4 permeability: 0.77 Barrer
  CO2 permeability: 29.3 Barrer
  N2 permeability: 1.33 Barrer
  O2 permeability: 6.17 Barrer

## *c1ccc(Oc2ccc(-c3ccc(-c4ccc(-c5ccc(Oc6ccc(N7C(=O)c8ccc(C(c9ccc%10c(c9)C(=O)N(*)C%10=O)(C(F)(F)F)C(F)(F)F)cc8C7=O)cc6)c(C(F)(F)F)c5)cc4)cc3)cc2C(F)(F)F)cc1 (repeat unit)
  CH4 permeability: 1.51 Barrer
  CO2 permeability: 36.6 Barrer
  N2 permeability: 3.11 Barrer
  O2 permeability: 17.1 Barrer

## *c1ccc(Oc2ccc(-c3ccc(-c4ccc(Oc5ccc(N6C(=O)c7ccc(C(c8ccc9c(c8)C(=O)N(*)C9=O)(C(F)(F)F)C(F)(F)F)cc7C6=O)cc5)c(C(F)(F)F)c4)cc3)cc2C(F)(F)F)cc1 (repeat unit)
  CH4 permeability: 1.19 Barrer
  CO2 permeability: 33.1 Barrer
  N2 permeability: 2.87 Barrer
  O2 permeability: 15.2 Barrer
